The source of these data is PubChem BioAssay (NCI).

Where “and” joins values, the source holds several entries; their conditions need not be identical. Equal values may be shown once.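 How tested: cells in 96-well plates exposed to compound for 48 hours at five concentrations. GI50: concentration for 50% inhibition of growth. The concentration for full growth arrest is given as TGI.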

Holding throughout (test): NCI-60 cell line screen, 48 h
Assay [1] relates to HL-60(TB) leukemia.
For assay [2], the system named is M14 melanoma.
Assay [3] deals with NCI-H460 lung.
Assay [4] has as its system OVCAR-5 ovarian.
Assay [5] relates to CAKI-1 renal.
For assay [6], the system named is SK-OV-3 ovarian.
For assay [7], the system named is SK-MEL-5 melanoma.
In assay [8] the test system is BT-549 breast.
Assay [9] has as its system SF-268 CNS.
The subject of assay [10] is PC-3 prostate.

With `S=C(N/N=C(/c1ccccc1)c1ccccn1)N1CCCCCC1`, the GI50 in [1] is < 0.001 µM; in assay [3], 0.00355 µM; in assay [4], < 0.001 µM; in assay [5] it was 0.131 µM; in assay [6], 0.00173 µM; in assay [7], 0.0199 µM. Further, in assay [10], the GI50 is < 0.001 µM. Besides, the TGI in [1] is 4.13 µM; in assay [2], 1.47 µM and 0.26 µM; in assay [3] it was 1.58 µM and 1.89 µM; in assay [4], 2.11 µM; in [5], 1.87 µM and 2.02 µM; in [6], 2.5 µM and 1.31 µM. In addition, the TGI in assay [7] is 0.138 µM and 1.17 µM; in assay [8] it was 2.07 µM; in assay [9], 1.96 µM and 2.87 µM; in assay [10], 1.37 µM and 1.52 µM.
On to `CSc1ncnc2c1ncn2C1OC(CO)C(O)OC1O` (configuration not stated), for which the TGI is 11.7 µM in [1]; 39.1 µM in assay [2]; 16 µM in assay [3]; > 23.3 µM in [4]; > 51.7 µM in assay [5]; > 100 µM in [6]. Besides, the TGI is 17.6 µM in assay [7], 48.5 µM in assay [8], > 100 µM in [9] and 33.9 µM in assay [10].
Turning to `CN(C)CCCNC(=O)c1cncnc1Nc1ccc(OCc2cccc(F)c2)c(Cl)c1`, the GI50 was 1.67 µM in assay [1]; 1.71 µM in [2]; 1.71 µM in [3]; 1.67 µM in assay [4]; 1.66 µM in [5]; 1.72 µM in assay [6]. Also, the GI50 is 1.71 µM in assay [7], 1.59 µM in assay [8], 1.81 µM in assay [9] and 1.58 µM in assay [10]. The TGI in assay [1] worked out at 3.52 µM; in [2], 3.38 µM; in assay [3], 3.13 µM; in [4], 3.07 µM; in [5] it was 3.05 µM; in [6], 3.23 µM. Moreover, the TGI in assay [7] came to 3.08 µM; in [8], 3.06 µM; in assay [9], 3.34 µM; in assay [10], 3.11 µM.
Take `CCCCCCc1nc2nc(Cl)c(Cl)nc2[nH]1`: the GI50 in assay [1] was 6.84 µM; in assay [2], > 100 µM; in assay [3], 5.59 µM; in assay [4], > 100 µM; in assay [5], 6.37 µM; in assay [6] it was > 100 µM. For the same molecule, the GI50 in assay [7] is 2.61 µM; in assay [8] it was 22.5 µM; in assay [9] it was > 100 µM; in [10], 4.68 µM. Moreover, the TGI in [1], in assay [2], in assay [3], in [4], in assay [5] and in assay [6] was > 100 µM each time. Also, the TGI in [7], in assay [8], in assay [9] and in [10] was > 100 µM each time.
On to `CCCCCCCCCCCCOC1C(C(CC(=O)N2CCN(c3cccc(C(F)(F)F)c3)CC2)NS(=O)(=O)c2cc(Cl)cc(Cl)c2)OC2OC(C)(C)OC21` (configuration not stated), for which the GI50 is > 100 µM in [1]; > 100 µM in assay [2]; > 100 µM in assay [3]; > 37.5 µM in [4]; > 100 µM in assay [5]; > 100 µM in [6]. The GI50 in [7], in [8], in [9] and in [10] was > 100 µM each time. For the same molecule, the TGI in [1], in assay [2], in [3], in assay [4], in assay [5] and in [6] was > 100 µM each time. Besides, the TGI in [7], in assay [8], in assay [9] and in assay [10] was > 100 µM throughout.
Take `CNC(=O)Oc1cc(C)c(/C=C/c2cncc(C(=O)NC)c2)c(C)c1`: the GI50 in assay [1] is > 21.2 µM; in [2] it was 16.8 µM; in [3] it was > 25 µM; in [4] it was > 25 µM; in assay [5], > 25 µM; in assay [6] it was > 25 µM. Moreover, the GI50 in assay [7] was > 22.1 µM; in assay [8], > 25 µM; in [9], > 25 µM; in [10], > 25 µM. The TGI in assay [1], in assay [2], in assay [3], in [4], in [5] and in assay [6] was > 25 µM throughout. For the same molecule, the TGI in assay [7], in [8], in [9] and in assay [10] was > 25 µM in each case.
